Test results published in US12325697B2 (Nimbus Clio, Inc., priority 2021, dated 2025).
Each block holds one compound with its values, some of them ahead of it.

Experiments:
[1] = biological target: Recombinant human Cbl-b (aa 36-427) (Homo sapiens (Human), UniProt Q13191); assay: Cbl-b Biochemical Assay (TR-FRET); details: read-out: TR-FRET hCbl-b IC50
Outline: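 IC50 from 4-parameter fit of % inhibition (DMSO max, reference-inhibitor min), duplicate ten-point series. Compound preincubated with 6 nM Cbl-b, then Src-Zap70 (1-2.5 nM)/0.5 mM ATP reaction 60 min RT; EDTA quench with labelled UBE2D2-Ub and streptavidin-terbium, 60 min, HTRF at 520 nm.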

[2] = biological target: Recombinant human c-Cbl (aa 47-435) (Homo sapiens (Human), UniProt P22681); assay: c-Cbl Biochemical Assay (TR-FRET)
Sequence of Recombinant human c-Cbl (aa 47-435) (P22681 47-435): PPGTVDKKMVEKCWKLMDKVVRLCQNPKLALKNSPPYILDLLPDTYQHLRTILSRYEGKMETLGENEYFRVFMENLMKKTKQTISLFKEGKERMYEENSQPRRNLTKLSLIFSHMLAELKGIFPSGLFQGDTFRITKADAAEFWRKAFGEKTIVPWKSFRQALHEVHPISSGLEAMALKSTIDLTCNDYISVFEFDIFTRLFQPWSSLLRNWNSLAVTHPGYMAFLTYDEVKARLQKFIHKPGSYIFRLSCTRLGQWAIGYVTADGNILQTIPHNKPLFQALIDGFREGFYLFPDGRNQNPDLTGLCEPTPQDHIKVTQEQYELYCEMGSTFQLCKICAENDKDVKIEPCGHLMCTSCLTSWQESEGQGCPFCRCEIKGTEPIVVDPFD
Method: Recombinant human c-Cbl (aa 47-435) was expressed in E. coli, purified and biotinylated in vitro. The protein was diluted to 12 nM in freshly prepared assay buffer consisting of 50 mM HEPES, pH 7.0, 100 mM NaCl, 5 mM MgCl2, 0.01% Triton-X 100, 0.01% BSA and 1 mM DTT. Recombinant human Src (aa 254-536)-[…]-Zap-70 (aa 281-297) fusion protein was expressed in E. coli and purified. Protein was diluted in assay buffer to 5-20 nM and ATP was added to 1 mM. Recombinant human UBE2D2([…]) was expressed in E. coli, purified and ubiquitinated and Bodipy labelled in vitro. Protein was diluted to 200 nM in assay buffer without MgCl2 (or Cisbio PPI buffer). Streptavidin-Terbium was added to 2 nM and EDTA to 10 mM, to provide a binding assay mix. Compounds were dissolved in DMSO and diluted to prepare a ten-point half log dilution series. 100 nl of each compound concentration was dispensed in duplicate in a 384 well black assay plate using acoustic dispensing. Wells for maximum signal controls received 100 nl of DMSO only and wells for minimum controls received 100 nl of a reference inhibitor compound at a final assay concentration of […] to produce 100% inhibition. 5 μl of diluted c-cbl enzyme was added to all wells of the assay plate and incubated at RT for 30 min. The enzyme assay was initiated by addition of 5 μl of Src-Zap/ATP mix to all wells, and the plate incubated at RT for 60-90 min. The enzyme reaction was terminated and the binding reaction was initiated by adding 10 μl of binding assay mix to all wells and incubating the plate at RT for 60 min prior to assay read. Final assay conditions consisted of 6 nM c-cbl, 2.5-10 nM Src-Zap70, 0.5 mM ATP, 1% (v/v) DMSO (enzyme reaction) and 100 nM UBE2D2([…])-Ub-FL-BODIPY, 5 mM EDTA, 1 nM Streptavidin-Tb (binding reaction). The HTRF assay signal was measured at 520 nm on an Envision plate reader, with reference signal at 485 or 620 nm. Data was normalized using maximum and minimum assay controls: % Inhibition=100-(100*((maximum control)-unknown)/(maximum control-minimum control)). A 4-parameter dose-response equation was used to fit the normalized dose-response data and derive an IC50 for test compounds.

Sequence of Recombinant human Cbl-b (aa 36-427) (Q13191 36-427): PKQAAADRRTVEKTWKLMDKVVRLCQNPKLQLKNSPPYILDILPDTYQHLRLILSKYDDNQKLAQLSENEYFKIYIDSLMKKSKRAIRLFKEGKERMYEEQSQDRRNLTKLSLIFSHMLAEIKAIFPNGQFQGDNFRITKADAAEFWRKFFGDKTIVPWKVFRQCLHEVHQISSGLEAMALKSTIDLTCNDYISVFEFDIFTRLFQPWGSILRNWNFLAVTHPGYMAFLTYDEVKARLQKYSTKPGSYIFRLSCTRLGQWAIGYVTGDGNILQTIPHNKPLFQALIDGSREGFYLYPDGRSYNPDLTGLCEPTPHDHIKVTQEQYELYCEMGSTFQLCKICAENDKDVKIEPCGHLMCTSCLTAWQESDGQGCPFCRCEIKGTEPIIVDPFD

SMILES: Cn1cnnc1-c1cc(C#N)ccc1-c1cc(C2CC2)nc(N2Cc3ccc(CNCC(C)(C)O)cc3C2=O)c1 [AIE-1, 4-[2-Cyclopropyl-6-(6-{[(2-hydroxy-2-methylpropyl)amino]methyl}-1-oxo-3H-isoindol-2-yl)pyridin-4-yl]-3-(4-methyl-1,2,4-triazol-3-yl)benzonitrile]
- IC50 [1]: ≤ 200 nM
- IC50 [2]: ≤ 200 nM

SMILES: Cn1cnnc1-c1cc(C#N)ccc1-c1cc(C2CC2)nc(N2Cc3c(F)cc(CN4C[C@@]5(C)C[C@@H]4CO5)cc3C2=O)c1 [ANV-1, 4-(2-Cyclopropyl-6-(4-fluoro-6-(((1R,4R)-1-methyl-2-oxa-5-azabicyclo[2.2.1]heptan-5-yl)methyl)-1-oxoisoindolin-2-yl)pyridin-4-yl)-3-(4-methyl-4H-1,2,4-triazol-3-yl)benzonitrile]
- IC50 [1]: ≤ 200 nM
- IC50 [2]: ≤ 200 nM

SMILES: Cn1cnnc1-c1cc(C#N)ccc1-c1cc(C2CC2)nc(N2Cc3c(F)cc(CNCC4COC4)cc3C2=O)c1 [ANB-1, 4-[2-Cyclopropyl-6-(4-fluoro-6-{[(oxetan-3-ylmethyl)amino]methyl}-1-oxo-3H-isoindol-2-yl)pyridin-4-yl]-3-(4-methyl-1,2,4-triazol-3-yl)benzonitrile]
- IC50 [1]: ≤ 200 nM
- IC50 [2]: ≤ 200 nM

SMILES: COC[C@H](C)NCc1cc(F)c2c(c1)C(=O)N(c1cc(-c3ccc(C#N)cc3-c3nncn3C)cc(C3CC3)c1)C2 [ALH-1, 3′-Cyclopropyl-5′-[4-fluoro-6-({[(2S)-1-methoxypropan-2-yl]amino}methyl)-1-oxo-3H-isoindol-2-yl]-2-(4-methyl-1,2,4-triazol-3-yl)-[1,1′-biphenyl]-4-carbonitrile]
- IC50 [1]: ≤ 200 nM
- IC50 [2]: ≤ 200 nM

SMILES: COCCNCc1cc2c(c(F)c1F)CN(c1cc(-c3ccc(C#N)cc3-c3nncn3C)cc(C3CC3)n1)C2=O [AMP-1, 4-[2-Cyclopropyl-6-(4,5-difluoro-6-{[(2-methoxyethyl)amino]methyl}-1-oxo-3H-isoindol-2-yl)pyridin-4-yl]-3-(4-methyl-1,2,4-triazol-3-yl)benzonitrile]
- IC50 [1]: ≤ 200 nM
- IC50 [2]: ≤ 200 nM

SMILES: Cn1cnnc1-c1cc(F)cc(F)c1-c1cc(C2CC2)nc(N2Cc3ccc(CNCC4(O)CCC4)cc3C2=O)c1 [AII-9, 2-{6-Cyclopropyl-4-[2,4-difluoro-6-(4-methyl-1,2,4-triazol-3-yl)phenyl]pyridin-2-yl}-6-({[(1-hydroxycyclobutyl)methyl]amino}methyl)-3H-isoindol-1-one]
- IC50 [1]: ≤ 200 nM
- IC50 [2]: ≤ 200 nM

SMILES: COC(F)(F)CNCc1cc(F)c2c(c1)C(=O)N(c1cc(-c3ccc(C#N)cc3-c3nncn3C)cc(C3CC3)n1)C2 [ALV-4, 4-[2-Cyclopropyl-6-(6-{[(2,2-difluoro-2-methoxyethyl)amino]methyl}-4-fluoro-1-oxo-3H-isoindol-2-yl)pyridin-4-yl]-3-(4-methyl-1,2,4-triazol-3-yl)benzonitrile]
- IC50 [1]: ≤ 200 nM
- IC50 [2]: ≤ 200 nM

SMILES: CN(Cc1ccc2c(c1)C(=O)N(c1cc(-c3ccc(Cl)cc3-c3nncn3C)cc(C3CC3)n1)C2)CC1(O)CCC1 [AMG-1, 2-(4-(4-Chloro-2-(4-methyl-4H-1,2,4-triazol-3-yl)phenyl)-6-cyclopropylpyridin-2-yl)-6-((((1-hydroxycyclobutyl)methyl)(methyl)amino)methyl)isoindolin-1-one]
- IC50 [1]: ≤ 200 nM
- IC50 [2]: ≤ 200 nM

SMILES: Cn1cnnc1-c1cc(C#N)ccc1-c1cc(C2CC2)nc(N2Cc3ccc(CNC4CC4)cc3C2=O)c1 [ALQ-2, 4-(2-Cyclopropyl-6-{6-[(cyclopropylamino)methyl]-1-oxo-3H-isoindol-2-yl}pyridin-4-yl)-3-(4-methyl-1,2,4-triazol-3-yl)benzonitrile]
- IC50 [1]: ≤ 200 nM
- IC50 [2]: ≤ 200 nM

SMILES: CCOCCNCc1ccc2c(c1)C(=O)N(c1cc(-c3ccc(C#N)cc3-c3nncn3C)cc(C3CC3)n1)C2 [AIN-2, 4-[2-cyclopropyl-6-(6-{[(2-ethoxyethyl)amino]methyl}-1-oxo-3H-isoindol-2-yl)pyridin-4-yl]-3-(4-methyl-1,2,4-triazol-3-yl)benzonitrile]
- IC50 [1]: ≤ 200 nM
- IC50 [2]: ≤ 200 nM

SMILES: Cn1cnnc1-c1cc(C#N)ccc1-c1cc(N2Cc3c(F)cc(CO)cc3C2=O)nc(C(F)(F)F)c1 [ALM-3, 4-{2-[4-Fluoro-6-(hydroxymethyl)-1-oxo-3H-isoindol-2-yl]-6-(trifluoromethyl)pyridin-4-yl}-3-(4-methyl-1,2,4-triazol-3-yl)benzonitrile]
- IC50 [1]: ≤ 200 nM
- IC50 [2]: 200 to 1000 nM

SMILES: CNCCNCc1ccc2c(c1)C(=O)N(c1cc(-c3ccc(C#N)cc3-c3nncn3C)cc(C3CC3)n1)C2 [ALZ-3, 4-{2-Cyclopropyl-6-[6-({[2-(methylamino)ethyl]amino}methyl)-1-oxo-3H-isoindol-2-yl]pyridin-4-yl}-3-(4-methyl-1,2,4-triazol-3-yl)benzonitrile]
- IC50 [1]: ≤ 200 nM
- IC50 [2]: ≤ 200 nM

SMILES: COC[C@@H]1CCCN1Cc1cc(F)c2c(c1)C(=O)N(c1cc(-c3ccc(C#N)cc3-c3nncn3C)cc(C3CC3)n1)C2 [AOY-2, (S)-4-(2-Cyclopropyl-6-(4-fluoro-6-((2-(methoxymethyl)pyrrolidin-1-yl)methyl)-1-oxoisoindolin-2-yl)pyridin-4-yl)-3-(4-methyl-4H-1,2,4-triazol-3-yl)benzonitrile]
- IC50 [1]: ≤ 200 nM
- IC50 [2]: ≤ 200 nM

SMILES: Cn1cnnc1-c1cc(Cl)ccc1-c1cc(C2CC2)nc(N2Cc3ccc(CNCC4CCC4)cc3C2=O)c1 [AIV-2, 2-(4-(4-Chloro-2-(4-methyl-4H-1,2,4-triazol-3-yl)phenyl) -6-cyclopropylpyridin-2-yl)-6-(((cyclobutylmethyl)amino)methyl) isoindolin-1-one]
- IC50 [1]: ≤ 200 nM
- IC50 [2]: ≤ 200 nM

SMILES: Cn1cnnc1-c1cc(C#N)ccc1-c1cc(C2CC2)nc(N2Cc3c(F)cc(CN4CC[C@@H]5C[C@@H]54)cc3C2=O)c1 [AMY-1, 4-(2-{6-[(1S,5R)-2-Azabicyclo[3.1.0]hexan-2-ylmethyl]-4-fluoro-1-oxo-3H-isoindol-2-yl}-6-cyclopropylpyridin-4-yl)-3-(4-methyl-1,2,4-triazol-3-yl)benzonitrile]
- IC50 [1]: ≤ 200 nM
- IC50 [2]: ≤ 200 nM

SMILES: Cn1cnnc1-c1cc(C#N)ccc1-c1cc(C2CC2)nc(N2Cc3ccc(CNCC45CC(C4)C5)cc3C2=O)c1 [AKD-2, 4-(2-{6-[({Bicyclo[1.1.1]pentan-1-ylmethyl}amino)methyl]-1-oxo-3H-isoindol-2-yl}-6-cyclopropylpyridin-4-yl)-3-(4-methyl-1,2,4-triazol-3-yl)benzonitrile]
- IC50 [1]: ≤ 200 nM
- IC50 [2]: ≤ 200 nM

SMILES: Cn1cnnc1-c1cc(C#N)ccc1-c1cc(C2CC2)nc(N2Cc3ccc([C@@H]4COC[C@H](C5CCC5)N4)cc3C2=O)c1 (stereo in doubt) [AOQ-1, rel-4-(2-{6-[(3R,5S)-5-Cyclobutylmorpholin-3-yl]-1-oxo-3H-isoindol-2-yl}-6-cyclopropylpyridin-4-yl)-3-(4-methyl-1,2,4-triazol-3-yl)benzonitrile]
- IC50 [1]: ≤ 200 nM
- IC50 [2]: ≤ 200 nM

SMILES: COC[C@@H](C)NCc1ccc2c(c1)C(=O)N(c1cc(-c3ccc(C#N)cc3-c3nncn3C)cc(C3CC3)n1)C2 [AIK-2, 4-{2-Cyclopropyl-6-[6-({[(2R)-1-methoxypropan-2-yl]amino}methyl)-1-oxo-3H-isoindol-2-yl]pyridin-4-yl}-3-(4-methyl-1,2,4-triazol-3-yl)]
- IC50 [1]: ≤ 200 nM
- IC50 [2]: ≤ 200 nM

SMILES: CN(Cc1ccc2c(c1)C(=O)N(c1cc(-c3ccc(C#N)cc3-c3nncn3C)cc(C3CC3)n1)C2)CC(C)(C)O [AMH-1, 4-[2-Cyclopropyl-6-(6-{[(2-hydroxy-2-methylpropyl)(methyl)amino]methyl}-1-oxo-3H-isoindol-2-yl)pyridin-4-yl]-3-(4-methyl-1,2,4-triazol-3-yl)benzonitrile]
- IC50 [1]: ≤ 200 nM
- IC50 [2]: ≤ 200 nM

SMILES: Cn1cnnc1-c1cc(C#N)ccc1-c1cc(C2CC2)nc(N2Cc3ccc(CN4CCC(F)(F)CC4)cc3C2=O)c1 [ALU-2, 4-(2-Cyclopropyl-6-{6-[(4,4-difluoropiperidin-1-yl)methyl]-1-oxo-3H-isoindol-2-yl}pyridin-4-yl)-3-(4-methyl-1,2,4-triazol-3-yl)benzonitrile]
- IC50 [1]: ≤ 200 nM
- IC50 [2]: ≤ 200 nM

- IC50 [2]: 200 to 1000 nM
SMILES: CCOc1cc(-c2ccc(F)cc2-c2nncn2C)cc(N2Cc3ccc(CO)cc3C2=O)n1 [ANS-1]
